According to patent US20230279023A1, “N/O-Linked Degrons and Degronimers for Protein Degradation” (C4 Therapeutics, Inc., priority 2019, published 2023):

Target: CRBN-DDB1 (Homo sapiens (Human), UniProt Q96SW2)
Test: Fluorescence polarization (FP) assay for compound ligand binding to CRBN-DDB1
Conditions: FP displacement of (−)-Thalidomide-Alexa Fluor or Pomalidomide-fluorescein probe, 400 nM CRBN-DDB1, 5 nM probe
Description: Measuring compound ligand binding to CRBN-DDB1 was carried out using an established sensitive and quantitative in vitro fluorescence polarization (FP) based binding assay. […] Compounds were dispensed from serially diluted DMSO stock into black 384-well compatible fluorescence polarization plates using an Echo acoustic dispenser. Compound binding to CRBN-DDB1 was measured by displacement of either a (−)-Thalidomide-Alexa Fluor® or Pomalidomide-fluorescein conjugated probe dye. […] Matching control wells excluding CRBN-DDB1 were used to correct for background fluorescence. Plates were read on an Envision plate reader with appropriate FP filter sets. The corrected S (perpendicular) and P (parallel) values were used to calculate fluorescence polarization (FP) with the following equation: […]

[1] = Additional Compounds of the Present Invention

Sequence of CRBN-DDB1 (Q96SW2 whole entry): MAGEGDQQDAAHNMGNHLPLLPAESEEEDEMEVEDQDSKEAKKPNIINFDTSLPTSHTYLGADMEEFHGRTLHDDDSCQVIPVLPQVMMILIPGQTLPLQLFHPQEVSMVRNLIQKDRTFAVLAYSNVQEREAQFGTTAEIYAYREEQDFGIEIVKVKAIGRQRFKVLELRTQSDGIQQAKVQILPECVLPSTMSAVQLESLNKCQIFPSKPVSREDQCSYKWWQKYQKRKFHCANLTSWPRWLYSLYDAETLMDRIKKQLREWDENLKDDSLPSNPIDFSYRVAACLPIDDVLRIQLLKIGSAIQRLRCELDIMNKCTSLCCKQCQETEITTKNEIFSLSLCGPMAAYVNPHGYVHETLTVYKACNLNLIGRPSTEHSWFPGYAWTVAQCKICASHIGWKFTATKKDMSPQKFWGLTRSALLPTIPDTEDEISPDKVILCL
Sequence of CRBN-DDB1 (Q16531 whole entry partner): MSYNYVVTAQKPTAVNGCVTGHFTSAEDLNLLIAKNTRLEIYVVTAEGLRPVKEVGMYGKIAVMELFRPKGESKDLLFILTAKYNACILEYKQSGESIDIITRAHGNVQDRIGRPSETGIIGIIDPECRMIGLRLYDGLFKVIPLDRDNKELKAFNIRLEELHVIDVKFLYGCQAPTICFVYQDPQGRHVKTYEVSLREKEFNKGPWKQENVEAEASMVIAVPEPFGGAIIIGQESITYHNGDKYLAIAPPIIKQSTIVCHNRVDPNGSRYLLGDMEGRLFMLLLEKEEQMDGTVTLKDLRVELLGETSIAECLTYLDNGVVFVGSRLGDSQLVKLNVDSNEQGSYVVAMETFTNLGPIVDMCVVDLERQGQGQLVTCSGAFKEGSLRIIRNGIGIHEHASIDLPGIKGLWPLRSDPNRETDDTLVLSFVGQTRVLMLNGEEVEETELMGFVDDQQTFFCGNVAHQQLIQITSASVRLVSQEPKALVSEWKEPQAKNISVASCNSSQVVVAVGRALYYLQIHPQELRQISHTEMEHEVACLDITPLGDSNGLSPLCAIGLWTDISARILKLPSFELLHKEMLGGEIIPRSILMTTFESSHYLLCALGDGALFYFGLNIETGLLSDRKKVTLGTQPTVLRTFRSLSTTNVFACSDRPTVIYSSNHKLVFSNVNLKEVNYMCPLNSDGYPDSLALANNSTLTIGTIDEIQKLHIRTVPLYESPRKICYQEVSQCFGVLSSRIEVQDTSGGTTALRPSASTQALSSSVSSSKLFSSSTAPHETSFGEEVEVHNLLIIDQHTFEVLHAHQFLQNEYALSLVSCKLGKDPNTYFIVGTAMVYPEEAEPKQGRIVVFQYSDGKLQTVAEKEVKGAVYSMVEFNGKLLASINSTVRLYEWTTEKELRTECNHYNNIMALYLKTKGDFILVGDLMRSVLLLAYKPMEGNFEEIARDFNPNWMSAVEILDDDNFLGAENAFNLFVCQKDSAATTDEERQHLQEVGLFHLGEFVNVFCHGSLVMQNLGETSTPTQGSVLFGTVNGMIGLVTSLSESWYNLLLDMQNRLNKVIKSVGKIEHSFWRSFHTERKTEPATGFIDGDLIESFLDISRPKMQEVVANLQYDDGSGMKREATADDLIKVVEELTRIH

Kd [1] [µM]	Structure (SMILES)	Kd (Degronimers) [µM]
< 10	CC(=O)CCc1ccc(OC2CCC(=O)NC2=O)cc1 (stereo not shown) [Compound 154]	
< 10	CN1Cc2cc(NC3CCC(=O)NC3=O)ccc2C1=O (stereo not shown) [Compound 160]	
	Cc1sc2c(c1C)C(c1ccc(Cl)cc1)=N[C@@H](CC(=O)NCCCCCCCCN1CCN(c3ccc(NC4CCC(=O)NC4=O)cc3)CC1)c1nnc(C)n1-2 (stereo partly drawn) [Degronimer 1, 2-((S)-4-(4-chlorophenyl)-2,3,9-trimethyl-6H-thieno[3,2-f][1,2,4]triazolo[4,3-a][1,4]diazepin-6-yl)-N-(8-(4-(4-((2,6-dioxopiperidin-3-yl)amino)phenyl)piperazin-1-yl)octyl)acetamide]	< 10
	Cc1nnc2n1-c1ccc(-c3cnn(CCCCCCN4CCN(c5ccc(NC6CCC(=O)NC6=O)cc5)CC4)c3)cc1C(c1ccc(Cl)cc1)=NC21CC1 (stereo not shown) [Degronimer 2, 3-((4-(4-(6-(4-(6-(4-chlorophenyl)-1-methylspiro[benzo[f][1,2,4]triazolo[4,3-a][1,4]diazepine-4,1′-cyclopropan]-8-yl)-1H-pyrazol-1-yl)hexyl)piperazin-1-yl)phenyl)amino)piperidine-2,6-dione]	< 10
